“Also recorded” adds a separate entry of the source.
Assays:
[1] = test system: IL-1β release, peripheral blood mononuclear cells (PBMCs); experiment: LPS-induced IL-1β release in PBMCs (ELISA); assay type: cell-based, Human; conditions: 100 nM-10 μM
Description: (§1) Human PBMCs were isolated from buffy coats (procured from Uppsala University Hospital, Sweden) using Ficoll density gradient centrifugation and stored at −150°C. Thawed PBMCs were cultured in Dulbecco’s Modified Eagle Medium (DMEM) supplemented with 10% fetal bovine serum (FBS) and 5% PeSt in a CO2 incubator. Cells were seeded in 24-well plates (0.5–1 × 10^6 cells/well in 1 mL medium). PROTAC analogs and FS were added at 10 μM, 1 μM, and 100 nM. Two setups were employed: one receiving only the compounds, and another in which LPS (20 ng/mL) was added 2 h after compound treatment. After 24 h, supernatants were collected for cytokine quantification by ELISA.
(§2) All quantitative data are presented as mean ± SD. Sample size for each assay was n = 3 biological replicates. For multi-group comparisons, one-way ANOVA followed by Tukey’s post hoc test was used; for two-group comparisons, two-tailed, unpaired Student’s t-test was applied. P < 0.05 was considered significant.

IL-6 = IL-6 (Homo sapiens, UniProt P05231); experiment: SPR binding to immobilized IL-6; conditions: CM5 chip, 1:1 binding model, 0.38-12.50 µM analyte
Description: (§3) SPR was used to evaluate the binding affinity between the PROTAC molecules and the target proteins. Target proteins CCL5 and IL-6 were immobilized on a CM5 sensor chip via amine coupling, with unreacted sites blocked using ethanolamine (pH 8.5). The PROTAC molecules were injected at concentrations ranging from 0.38 µM to 12.50 µM in PBS-P running buffer (0.02 M phosphate buffer, 137 mM NaCl, 2.7 mM KCl, 0.2% DMSO, 0.05% P20, pH 7.4). Each injection lasted 120 s (association phase) followed by a 300-s dissociation phase at a flow rate of 30 μL/min. Data were analyzed using Biacore Insight Evaluation Software with a 1:1 binding model to determine KD values. In addition to the 1:1 Langmuir model, we tested bivalent-analyte and heterogeneous-ligand models. Both alternatives yielded substantially larger residuals and poorer overall fits, confirming the 1:1 Langmuir model as the most suitable for our sensorgram data.
(§4) To comprehensively assess the biological functionality of the PROTAC molecules, binding kinetics with the target proteins CCL5 and IL-6 were investigated using the Biacore 8K^+ system. CCL5 and IL-6—key inflammatory mediators—were immobilized on a CM5 sensor chip (9000 RU) via amine coupling, and kinetic parameters were calculated using a 1:1 binding model.

CCL5 = target: T1, CCL5 (Homo sapiens, UniProt P13501); experiment: SPR binding to immobilized CCL5; conditions: for Kd: CM5 chip, 1:1 binding model, 0.38-12.50 µM analyte
T1 sequence (P13501 24-91): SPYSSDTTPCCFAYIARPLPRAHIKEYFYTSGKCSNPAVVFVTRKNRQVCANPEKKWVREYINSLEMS
Description: as §3, §4

[2] = test system: inflammatory cytokines (IL-1β and TNF-α), PBMCs; experiment: LPS-induced cytokine secretion in PBMCs, cytokines overall; assay type: cell-based, Human; conditions: 100 nM-10 μM
Description: as §1, §2

[3] = test system: TNF-α release, peripheral blood mononuclear cells (PBMCs); experiment: LPS-induced TNF-α release in PBMCs (ELISA); assay type: cell-based, Human; conditions: 100 nM-10 μM
Description: as §1, §2

[4] = test system: colonic TNF-α and IL-1β levels; design: method as in Xu et al., 2024; conditions: murine colitis model; ref Xu et al., 2024; cited from earlier work

Sequence of IL-6 (P05231 30-212, species assumed): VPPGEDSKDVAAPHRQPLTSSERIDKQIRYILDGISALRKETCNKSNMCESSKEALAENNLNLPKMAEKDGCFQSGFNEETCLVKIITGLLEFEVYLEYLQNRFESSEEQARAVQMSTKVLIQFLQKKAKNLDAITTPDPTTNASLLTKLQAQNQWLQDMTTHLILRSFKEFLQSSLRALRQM

| Compound | Kd (IL-6) [µM] | Kd (CCL5) [µM] | binding to CCL5 (in words) (CCL5; negative control) | effect on LPS-induced IL-1β release (in words) [1] | effect on LPS-induced cytokine secretion (in words) [2] | effect on LPS-induced TNF-α (in words) [3] | colonic TNF-α and IL-1β levels [4] |
| --- | --- | --- | --- | --- | --- | --- | --- |
| CO[C@H]1O[C@H](COS(=O)(=O)O)[C@@H](O[C@@H]2O[C@@H](C(=O)NCCCCCCCNc3cccc4c3C(=O)N(C3CCC(=O)NC3=O)C4=O)[C@@H](OC3O[C@H](COS(=O)(=O)O)[C@@H](O[C@@H]4O[C@H](C(=O)NCCCCCCCNc5cccc6c5C(=O)N(C5CCC(=O)NC5=O)C6=O)[C@@H](O[C@H]5O[C@H](COS(=O)(=O)O)[C@@H](O)[C@H](O)[C@H]5NS(=O)(=O)O)[C@H](O)[C@H]4O)[C@H](OS(=O)(=O)O)[C@H]3NS(=O)(=O)O)[C@H](O)[C@H]2OS(=O)(=O)O)[C@H](O)[C@H]1NS(=O)(=O)O (some centres unmarked) [Product 6] | 8.27 | 4.75 | – | significantly inhibited | significant inhibition; also recorded: concentration-dependent suppression | – | – |
| CO[C@H]1O[C@H](COS(=O)(=O)O)[C@@H](O[C@@H]2O[C@@H](C(=O)O)[C@@H](O[C@H]3O[C@H](COS(=O)(=O)O)[C@@H](O[C@@H]4O[C@H](C(=O)O)[C@@H](O[C@H]5O[C@H](COS(=O)(=O)O)[C@@H](O)[C@H](O)[C@H]5NS(=O)(=O)O)[C@H](O)[C@H]4O)[C@H](OS(=O)(=O)O)[C@H]3NS(=O)(=O)O)[C@H](O)[C@H]2OS(=O)(=O)O)[C@H](O)[C@H]1NS(=O)(=O)O [FS, Fondaparinux Sodium] | 13.5 | – | no binding | no effect | did not elicit significant changes | – | – |
| O=C(/C=C/C(=O)Nc1ccc(NC(=O)c2ccc([N+](=O)[O-])o2)cc1)NCCCCCCNc1cccc2c1C(=O)N(C1CCC(=O)NC1=O)C2=O (centres unmarked) [SP23] | – | – | – | – | – | – | reduced |

The next lines start with results.

| Kd (IL-6) [µM] | Kd (CCL5) [µM] | binding to CCL5 (in words) (CCL5; negative control) | Compound | effect on LPS-induced IL-1β release (in words) [1] | effect on LPS-induced cytokine secretion (in words) [2] | effect on LPS-induced TNF-α (in words) [3] | colonic TNF-α and IL-1β levels [4] |
| --- | --- | --- | --- | --- | --- | --- | --- |
| 1.54 | 11.3 | – | CO[C@H]1O[C@H](COS(=O)(=O)O)[C@@H](O[C@@H]2O[C@@H](C(=O)NCCCCCNc3cccc4c3C(=O)N(C3CCC(=O)NC3=O)C4=O)[C@@H](OC3O[C@H](COS(=O)(=O)O)[C@@H](O[C@@H]4O[C@H](C(=O)NCCCCCNc5cccc6c5C(=O)N(C5CCC(=O)NC5=O)C6=O)[C@@H](O[C@H]5O[C@H](COS(=O)(=O)O)[C@@H](O)[C@H](O)[C@H]5NS(=O)(=O)O)[C@H](O)[C@H]4O)[C@H](OS(=O)(=O)O)[C@H]3NS(=O)(=O)O)[C@H](O)[C@H]2OS(=O)(=O)O)[C@H](O)[C@H]1NS(=O)(=O)O (some centres unmarked) [Product 10] | significantly inhibited | significant inhibitory effect; also recorded: concentration-dependent suppression | – | – |
| – | 9.48 | – | CO[C@H]1O[C@H](COS(=O)(=O)O)[C@@H](O[C@@H]2O[C@@H](C(=O)NCCCCCc3cccc4c3CN(C3CCC(=O)NC3=O)C4=O)[C@@H](OC3O[C@H](COS(=O)(=O)O)[C@@H](O[C@@H]4O[C@H](C(=O)NCCCCCc5cccc6c5CN(C5CCC(=O)NC5=O)C6=O)[C@@H](O[C@H]5O[C@H](COS(=O)(=O)O)[C@@H](O)[C@H](O)[C@H]5NS(=O)(=O)O)[C@H](O)[C@H]4O)[C@H](OS(=O)(=O)O)[C@H]3NS(=O)(=O)O)[C@H](O)[C@H]2OS(=O)(=O)O)[C@H](O)[C@H]1NS(=O)(=O)O (some centres unmarked) [Product 8] | no significant effect; also recorded: not statistically significant | did not elicit significant changes; also recorded: limited anti-inflammatory activity | mild inhibition; also recorded: minimal | – |
